In PubChem BioAssay (NCI):
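Following 48 hours of exposure in 96-well plates, responses at five concentrations were used to interpolate endpoints linearly. At the TGI there is no net growth.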

Assays:
Assay in all cases: NCI anticancer screen, dose series, 48 h
OVCAR-4 ovarian = test system: OVCAR-4 ovarian
UACC-62 melanoma = test system: UACC-62 melanoma
NCI/ADR-RES ovarian = test system: NCI/ADR-RES ovarian
DU-145 prostate = test system: DU-145 prostate
MCF7 breast = test system: MCF7 breast
CAKI-1 renal = test system: CAKI-1 renal
MALME-3M melanoma = test system: MALME-3M melanoma
LOX IMVI melanoma = test system: LOX IMVI melanoma
OVCAR-3 ovarian = test system: OVCAR-3 ovarian
MDA-MB-231 breast = test system: MDA-MB-231 breast
HOP-92 NSCLC = test system: HOP-92 NSCLC
UO-31 renal = test system: UO-31 renal
UACC-257 melanoma = test system: UACC-257 melanoma
BT-549 breast = test system: BT-549 breast
SK-MEL-2 melanoma = test system: SK-MEL-2 melanoma
NCI-H460 lung = test system: NCI-H460 lung
A549 NSCLC = test system: A549 NSCLC
RPMI-8226 leukemia = test system: RPMI-8226 leukemia
HCC-2998 colon = test system: HCC-2998 colon
HS 578T breast = test system: HS 578T breast
SW-620 colon = test system: SW-620 colon
SNB-75 CNS = test system: SNB-75 CNS
NCI-H226 lung = test system: NCI-H226 lung
HL-60(TB) leukemia = test system: HL-60(TB) leukemia
SF-268 CNS = test system: SF-268 CNS
CCRF-CEM leukemia = test system: CCRF-CEM leukemia
KM12 colon = test system: KM12 colon
HCT-15 colon = test system: HCT-15 colon
NCI-H23 lung = test system: NCI-H23 lung
ACHN renal = test system: ACHN renal
SK-MEL-28 melanoma = test system: SK-MEL-28 melanoma
MDA-N = test system: MDA-N
SK-OV-3 ovarian = test system: SK-OV-3 ovarian
M14 melanoma = test system: M14 melanoma
MDA-MB-435 = test system: MDA-MB-435
RXF 393 renal = test system: RXF 393 renal
SNB-19 CNS = test system: SNB-19 CNS
K-562 leukemia = test system: K-562 leukemia
COLO 205 colon = test system: COLO 205 colon
OVCAR-8 ovarian = test system: OVCAR-8 ovarian
HCT-116 colon = test system: HCT-116 colon
HOP-62 NSCLC = test system: HOP-62 NSCLC
IGROV1 ovarian = test system: IGROV1 ovarian
PC-3 prostate = test system: PC-3 prostate
EKVX NSCLC = test system: EKVX NSCLC
786-0 renal = test system: 786-0 renal
OVCAR-5 ovarian = test system: OVCAR-5 ovarian
SF-539 CNS = test system: SF-539 CNS
SF-295 CNS = test system: SF-295 CNS
U251 CNS = test system: U251 CNS
A498 renal = test system: A498 renal
HT29 colon = test system: HT29 colon
TK-10 renal = test system: TK-10 renal
MOLT-4 leukemia = test system: MOLT-4 leukemia
NCI-H522 lung = test system: NCI-H522 lung
SK-MEL-5 melanoma = test system: SK-MEL-5 melanoma
SR leukemia = test system: SR leukemia
SN12C renal = test system: SN12C renal

Compound CC1OC(OC2C(O[C@H]3CC[C@@]4(C)[C@@H](CC[C@@H]5[C@@H]4CC[C@]4(C)[C@@H]6[C@H](C[C@@H]54)O[C@]4(CC[C@@H](C)CO4)[C@H]6C)C3)OC(CO)C(OC3OC(CO)C(O)C(OC4OCC(O)C(O)C4O)C3OC3OCC(O)C(O)C3O)C2O)C(O)C(O)C1O (stereo not given in full) has a TGI (OVCAR-4 ovarian) of 2.89 µM, a TGI (UACC-62 melanoma) of 1.77 µM and a TGI (NCI/ADR-RES ovarian) of 3.13 µM. For the same compound, the TGI (DU-145 prostate) was 2.73 µM, the TGI (MCF7 breast) was 0.914 µM and the TGI (CAKI-1 renal) was 2.53 µM. It also gave a TGI (MALME-3M melanoma) of 2.63 µM, a TGI (LOX IMVI melanoma) of 2.91 µM and a TGI (OVCAR-3 ovarian) of 3.13 µM. For the same compound, the TGI (MDA-MB-231 breast) was 9.57 µM, the TGI (HOP-92 NSCLC) was 3.11 µM and the TGI (UO-31 renal) was 2.44 µM. The TGI (UACC-257 melanoma) was 2.34 µM, the TGI (BT-549 breast) was 2.36 µM and the TGI (SK-MEL-2 melanoma) was 2.27 µM. The TGI (NCI-H460 lung) was 2.23 µM, the TGI (A549 NSCLC) was 1.05 µM and the TGI (RPMI-8226 leukemia) was 11.4 µM. The TGI (HCC-2998 colon) was 3.01 µM, the TGI (HS 578T breast) was 2.74 µM and the TGI (SW-620 colon) was 0.348 µM. The TGI (SNB-75 CNS) was 2.86 µM, the TGI (NCI-H226 lung) was 3.58 µM and the TGI (HL-60(TB) leukemia) was 1.01 µM. The TGI (SF-268 CNS) was 3.37 µM, the TGI (CCRF-CEM leukemia) was 0.499 µM and the TGI (KM12 colon) was 1.92 µM. For the same compound, the TGI (HCT-15 colon) was 2.61 µM, the TGI (NCI-H23 lung) was 2.93 µM and the TGI (ACHN renal) was 2.2 µM. It also gave a TGI (SK-MEL-28 melanoma) of 2.04 µM, a TGI (MDA-N) of 36.3 µM and a TGI (SK-OV-3 ovarian) of 3.44 µM. The TGI (M14 melanoma) was 0.963 µM, the TGI (MDA-MB-435) was 2.74 µM and the TGI (RXF 393 renal) was 1.85 µM. For the same compound, the TGI (SNB-19 CNS) was 2.33 µM, the TGI (K-562 leukemia) was > 100 µM and the TGI (COLO 205 colon) was 1.35 µM. For the same compound, the TGI (OVCAR-8 ovarian) was 3.25 µM, the TGI (HCT-116 colon) was 1.02 µM and the TGI (HOP-62 NSCLC) was 2.03 µM. The TGI (IGROV1 ovarian) was 2.73 µM, the TGI (PC-3 prostate) was 1.8 µM and the TGI (EKVX NSCLC) was 2.95 µM. The TGI (786-0 renal) was 3.02 µM, the TGI (OVCAR-5 ovarian) was 2.42 µM and the TGI (SF-539 CNS) was 1.25 µM. For the same compound, the TGI (SF-295 CNS) was 1.93 µM, the TGI (U251 CNS) was 1.79 µM and the TGI (A498 renal) was 3.78 µM. The TGI (HT29 colon) was 1.71 µM.
In the case of Cc1ccc(-c2c(C#N)c(S)n(NS(=O)(=O)c3ccc(C)cc3)c(=O)c2C#N)cc1, the TGI (OVCAR-4 ovarian) is reported as 36.4 µM, the TGI (UACC-62 melanoma) is reported as > 100 µM and the TGI (NCI/ADR-RES ovarian) is reported as 77.9 µM. The TGI (DU-145 prostate) was > 100 µM, the TGI (MCF7 breast) was > 100 µM and the TGI (CAKI-1 renal) was 74.3 µM. The TGI (MALME-3M melanoma) was 38.7 µM, the TGI (LOX IMVI melanoma) was > 100 µM and the TGI (OVCAR-3 ovarian) was > 100 µM. The TGI (TK-10 renal) was 50.5 µM, the TGI (MDA-MB-231 breast) was > 100 µM and the TGI (HOP-92 NSCLC) was > 100 µM. The TGI (UO-31 renal) was 38.5 µM, the TGI (UACC-257 melanoma) was > 100 µM and the TGI (BT-549 breast) was 47.8 µM. For the same compound, the TGI (SK-MEL-2 melanoma) was 62.2 µM, the TGI (A549 NSCLC) was > 100 µM and the TGI (RPMI-8226 leukemia) was > 100 µM. The TGI (HCC-2998 colon) was 46.9 µM, the TGI (SW-620 colon) was 39.3 µM and the TGI (MOLT-4 leukemia) was > 100 µM. The TGI (SNB-75 CNS) was 37.4 µM, the TGI (NCI-H522 lung) was 48.1 µM and the TGI (NCI-H226 lung) was 39.6 µM. For the same compound, the TGI (HL-60(TB) leukemia) was > 100 µM, the TGI (CCRF-CEM leukemia) was > 100 µM and the TGI (SK-MEL-5 melanoma) was 49.2 µM. The TGI (KM12 colon) was 35.2 µM, the TGI (HCT-15 colon) was 40.4 µM and the TGI (NCI-H23 lung) was 52.3 µM. For the same compound, the TGI (ACHN renal) was 49.8 µM, the TGI (SK-MEL-28 melanoma) was 61.2 µM and the TGI (MDA-N) was > 100 µM. For the same compound, the TGI (SK-OV-3 ovarian) was > 100 µM, the TGI (M14 melanoma) was 81.5 µM and the TGI (MDA-MB-435) was 52.8 µM. For the same compound, the TGI (RXF 393 renal) was 97.5 µM, the TGI (SNB-19 CNS) was 52.1 µM and the TGI (K-562 leukemia) was > 100 µM. For the same compound, the TGI (COLO 205 colon) was > 100 µM, the TGI (OVCAR-8 ovarian) was 41.8 µM and the TGI (HCT-116 colon) was 90.9 µM. The TGI (IGROV1 ovarian) was 51.1 µM, the TGI (PC-3 prostate) was > 100 µM and the TGI (EKVX NSCLC) was > 100 µM. For the same compound, the TGI (786-0 renal) was > 100 µM, the TGI (OVCAR-5 ovarian) was 67 µM and the TGI (SR leukemia) was > 100 µM. The TGI (SN12C renal) was > 100 µM, the TGI (SF-539 CNS) was 43.2 µM and the TGI (SF-295 CNS) was 51.3 µM. For the same compound, the TGI (U251 CNS) was 37.7 µM and the TGI (A498 renal) was > 100 µM.
